Source: US6444849B1, “Amide derivatives” (Mitsubishi Chemical Corporation, priority 1997, dated 2002)
Converted amounts (≈) assume the structure as drawn.

Assays:
Campylobacter jejuni = assay: Measurement of anti-Campylobacter jejuni activity (MIC); format: cell-based; settings: method similar to Test Example 1
Experimental: Brain heart infusion culture medium containing 10% fetal bovine serum (Difco) (5 ml) was taken in a test tube, and then the medium was inoculated with Helicobacter pylori strain 31A isolated from human (obtained from the Metropolitan Health Institute, Microorganism Department, First Laboratory of Bacteria). Cultivation was carried out under slightly aerobic condition (5% oxygen, 10% carbon dioxide, 85% nitrogen) at 37° C. for 48 hours with shaking.
The culture was then inoculated to brain heart infusion medium containing 10% fetal bovine serum at a ratio of 5%, and added with a test compound dissolved in 10% dimethyl sulfoxide. Cultivation was carried out under slightly aerobic condition at 37° C. for 48 hours with shaking, and then growth of Helicobacter pylori was examined. […] From the results shown in Tables 3 and 4, it can be understood that the compounds of the present invention have potent inhibitory activity against Helicobacter pylori.
According to a aimiar method to that of Test Example 1, inhibitory activity of the compound of the present invention against Campylobacter jejune was determined. As a result, MIC of the compound of Example 31 was 0.008 μg/ml. From the result, it can be understood that the compound of the present invention has potent inhibitory activity against Campylobacter jejumni.

in vivo = settings: both sexes, rat, oral, suspended in 0.5% CMC-Na aqueous solution, SD male and female rats, observed for seven days

MIC (Campylobacter jejuni) | Compound | LD50 (in vivo)
8 ng/mL (≈ 0.0251 µM) | CNC(=O)c1cccc(NC(=O)Cc2ccc3ccccc3c2)c1 [Example 31, N-(3-Methylcarbamoylphenyl)-2-naphthylacetnide] | 
 | CNC(=O)c1cccc(NC(=O)Cc2cccc3ccccc23)c1 [Example 30, N-(3-Methylcarbamoylphenyl)-1-naphthylacetamide] | ≥ 2000 mg/kg
